Earlier results on 1 compound are cited in patent publication US20070092568A1 (priority 2005, published 2007).

Where a name gives a salt, the structure may show the parent alone.

In the case of `COc1ccc2c3c1O[C@H]1C[C@@H](O)C=C[C@@]31CCN(C)C2` [Galantamine hydrobromide, (4aS,6R,8aS)-4a,5,9,10,11,12-hexahydro-3-methoxy-11-methyl-6H-benzofuro[3a,3,2-ef][2]benzazepin-6-ol], the Solubility in water entry is on record as “sparingly soluble in water”.
